From US20160317632A1, “USE OF CBP/EP300 BROMODOMAIN INHIBITORS FOR CANCER IMMUNOTHERAPY” (GENENTECH, INC., priority 2013, published 2016) come the findings set out here.

Common to all, as to type: cell-based, human
Assay [1] concerns CD8+ T cells. As to the kind of experiment: gene expression in stimulated CD8+ T cells by q-RT-PCR (FIGS. 9-10). As to conditions: for expression of LAG3, TIM3 and CTLA4: FIG. 9; for GZMB expression (effector function of CD8+ T cells): FIG. 10. The method, then:
(§1) Naïve CD4+CD45RA+ T cells were isolated from healthy human PBMCs using Miltenyi Biotec naïve human T cell isolation kit (cat#130-094-131). Isolated cells were cultured at 10e6 cells/ml under iTreg-differentiation conditions using Dynabeads (Invitrogen; cat#11132D) at 1:1 ratio of beads to cells+human recombinant IL-2 (10 ng/ml) (R&D, cat#202-IL-010)+human recombinant TGFb (10 ng/ml) (Invitrogen; cat# PHG9204). After 16 hours the CBP inhibitors CBP/EP300(3) and CBP/EP300(4) were added using DMSO as control. CD8+ T cells were isolated from healthy human PBMCs using Militenyi Biotec human CD8 T cell isolation kit (cat#130-095-236) and cultured at 10e6 cells/ml with human T activator Dynabeads at 1:1 ratio of cells to cells with the addition of 10 ng/ml of recombinant human IL-2. 3 days after CD8+ T cell stimulation supernatants were collected and analyzed for CD8+ T cell associated effector function cytokines IFNg and TNFα by Luminex. Data in FIG. 10 show IFNγ (A) and TNFα (B) (pg/ml) secreted in the supernatants of CD8+ T cells stimulated with compounds CBP/EP300(3) and CBP/EP300(4), using DMSO as control.
3 days after CD8+ T cell stimulation mRNA was extracted using mRNA Catcher™ PLUS Purification Kit (Invitrogen; K1570-02). Gene expression of Lag3, CTLA4 and TIM3, genes encoding inhibitory receptors on the surface of CD8+ T cells and under the transcriptional control of CBP/p300, was analyzed by q-RT-PCR. Foxp3 expression and Granzyme B (GZMB) expression, a gene encoding effector function of CD8+ T cells, were also analyzed by q-RT-PCR. Beta-2-microglobulin (B2M) was used as house-keeping gene.

The test system of assay [2] is iTreg cells. Kind of assay: Foxp3 expression in iTreg differentiating cells by q-RT-PCR (FIG. 7). The method, then: as §1, with “Data in FIG. 10 show IFNγ (A) and TNFα (B) (pg/ml) secreted in the supernatants of CD8+ T cells stimulated with compounds CBP/EP300(3) and CBP/EP300(4), using DMSO as control.” left out
3 days after CD8+ T cell stimulation mRNA was extracted using mRNA Catcher™ PLUS Purification Kit (Invitrogen; K1570-02). Gene expression of Lag3, CTLA4 and TIM3, genes encoding inhibitory receptors on the surface of CD8+ T cells and under the transcriptional control of CBP/p300, was analyzed by q-RT-PCR. Foxp3 expression and Granzyme B (GZMB) expression, a gene encoding effector function of CD8+ T cells, were also analyzed by q-RT-PCR. […]

Assay [3] relates to CD8+ T cells. As to the kind of experiment: IFNγ and TNFα in supernatants of stimulated CD8+ T cells by Luminex. As to conditions: supernatants 3 days after stimulation. The method, then: as §1
The test system of assay [4] is iTreg cells. As to the kind of experiment: Foxp3 protein expression in iTreg cells by flow cytometry (FIG. 8). The note with it: 4 days after stimulation. The method, then: as §1, with “Data in FIG. 10 show IFNγ (A) and TNFα (B) (pg/ml) secreted in the supernatants of CD8+ T cells stimulated with compounds CBP/EP300(3) and CBP/EP300(4), using DMSO as control.” left out
Cells from iTreg cultures were first stained with CD4 APC-CY7 and CD25 Pacific blue (both from BD pharmigen, cat#557811 and 560355, respectively); this was followed by fixation/permeabilization step and staining for intracellular Foxp3 FITC using human Foxp3 staining kit (eBioscience; cat#77-5774-40) according to the manufacturer protocol. FOXP3 expression by FACS was typically measured 4 d post-activation.
In general terms: In flow cytometry, cells or beads pass a laser one at a time.

On to `C[C@H]1Nc2c(cccc2C(=O)NCCCN2CCOc3ccccc32)NC1=O` [CBP/EP300(3)], for which, in the assay on CD8+ T cells [1], the “expression of LAG3, TIM3 and CTLA4” value is “dose-dependent reduction in the expression of LAG3, TIM3 and CTLA4”; the “GZMB expression (effector function of CD8+ T cells)” value was “did not affect effector function of CD8+ T cells”. In the assay with iTreg cells [2], the “Foxp3 expression, fold change over unstimulated naïve T cells” value is “decrease Foxp3 expression in iTreg cells in a dose dependent manner”. The “cytokine production (IFNγ, TNFα) by CD8+ T cells” value in the assay on CD8+ T cells [3] is on record as “minimally affect”. Moreover, the Foxp3 protein expression result in the assay on iTreg cells [4] is recorded as “decrease Foxp3 protein expression in iTreg cells”.
On to `COc1ccc2c(c1)N(CCCNC(=O)c1cccc3c1N[C@H](C)C(=O)N3)CCC2` [CBP/EP300(4)], for which, in the assay with CD8+ T cells [1], the “expression of LAG3, TIM3 and CTLA4” value was “dose-dependent reduction in the expression of LAG3, TIM3 and CTLA4”; the “GZMB expression (effector function of CD8+ T cells)” value is listed as “did not affect effector function of CD8+ T cells”. In the assay with iTreg cells [2], the “Foxp3 expression, fold change over unstimulated naïve T cells” value was “decrease Foxp3 expression in iTreg cells in a dose dependent manner”. For the same compound, the “cytokine production (IFNγ, TNFα) by CD8+ T cells” value in the assay on CD8+ T cells [3] is “minimally affect”. The Foxp3 protein expression result with iTreg cells [4] is “decrease Foxp3 protein expression in iTreg cells”.
